{
  "source": "patent US20020055174A1",
  "about": "“Complex for transferring an anionic substance of interest into a cell” (priority 2000, published 2002)",
  "key": {"CHO cells": {"system": "CHO cells", "assay": "Transfection in vitro, luciferase plasmid pTG11236", "type": "cell-based", "protocol": "A comparison of ppTG1 and KALA was carried out in HeLa and CHO cells. 5×10^4 cells were seeded on 24 well plates. The next day, cells were transfected with 500 ng and 50 ng of pTG11236, complexed with ppTG1 or KALA in 30 μl 0.9% NaCl. The charge ratio +/− varied from 1, 2, 3, 4, 7 to 10. Cells were harvested 20 h after transfection and lysis was obtained in 100 μl Promega lysis buffer. Luciferase activity and total protein concentrations in 20 μl were determined."}, "B6SJL mice": {"system": "B6SJL mice", "protocol": "Indicated amounts of the luciferase expression plasmid pTG11236 were mixed with ppTG1 and /or pcTG90/DOPE. The resulting formulations were injected intramuscularly(30 μl), intravenously(250 μl) into mice or intratumorally (Renca tumors, 100 μgl). Muscles, tumors or organs were recovered at the indicated points of time, macerated and tested for luciferase activity with the luciferase assay kit from Promega.\n60 μg or 30 μg of the plasmid pTG11236 were mixed with peptide ppTG1 and/or with a pcTG90/DOPE 1:2 mixture in 250 μl 5% glucose. After 20 min incubation at room temperature, the complexes were intravenously injected into B6SJL mice. Mice were sacrificed at day 1. The lungs were recovered, total protein was extracted and luciferase activity was analysed.\nThe potential of gene transfer with mono-component peptide vectors was investigated in vivo. Fifty or sixty μg of the luciferase expression plasmid pTG11236 were complexed with pcTG90/DOPE (1:2) [+/−] 10 in 250 μl 5% glucose (Meyer et al. 2000). The resulting lipoplex vector served as reference for gene transfer studies with pTG11236 complexed with ppTG1, ppTG20 and ppTG32 in 250 μl 5% glucose. Five mice per group were intravenously injected, the animals were sacrificed at day 1 after injection. Lungs were tested for luciferase activity."}, "293-EBNA cells": {"system": "293-EBNA cells", "assay": "Transfection in vitro, luciferase plasmid pTG11056", "type": "cell-based", "protocol": "Cells were plated on 24 well plates at a density of 4×10^4 (293-EBNA ) or 7×10^4 (HeLa, Renca) cells/well in DMEM supplemented with 10% FCS. The next day, the medium was replaced by 200 μl serum-free DMEM and plasmid (pTG11056 or pTG11236)/peptide complexes or plasmid/peptide/lipid complexes were prepared in 30 μl 0.9% NaCl or 5% glucose. After 20 min at room temperature these complexes were added to the cells which were then incubated for 2-3 h at 37° C. and 5% CO2 before 1 ml serum-containing DMEM was added. Approximately 20-hours later, cells were lysed by addition of 100 μl 1× Promega lysis buffer, 20 μl of the lysates were analysed for luciferase activity. Proteins were quantified with the bicinchonic acid (BCA) colorimetric method (Smith, Anal. Biochem. 150 (1985), 76-85).\n4×10^4 293-EBNA cells, plated on 24 well plates the day before, were transfected with 0.5 μg, 0.1 μg, 0.05 μg and 0.01 μg of the plasmid pTG11056. The plasmid was either mixed with completely or uncompletely DNA-complexing amounts of ppTG1 in 30 μl 5% glucose and after 20 min at room temperature the mixture was added to the cells which were incubated in 200 μl serum-free medium. Further, pTG11056 was formulated with the established transfection reagents Lipofectin and PEI. […] After twenty hours, cells were washed and luciferase activity was determined in ⅕ of the lysed cells."}, "[1]": {"system": "WiDr, MDA-MB-435S, SW480 and LoVo", "assay": "Transfection of human tumor cell lines", "type": "cell-based", "details": "ppTG1/plasmid pTG11236 complexes, luciferase day 1", "protocol": "WiDr (ATCC CCL-218), MDA-MB-435S (ATCC HTB-129), SW480 (ATCC CCL-228) and LoVo cell (CCL-229) were cultivated in the appropriate medium with 10% fetal calf serum, 1% gentamycine, 1% glutamine and 3 g/l glucose, in an incubator at 37° C. and 5% CO2.\nThe transfection efficiencies with plasmid/ppTG1 complexes were tested in the human tumor cells WiDr, MDA-MB-435S, SW480 and LoVo (ATCC) in comparison to lipofectin, PEI and pcTG90/DOPE (1:1) [+/−] 5."}, "[2]": {"assay": "Liposome leakage assay, POPC liposomes containing calcein", "details": "pH5 and pH7, 20 μg as starting point", "protocol": "Leakage activity was plotted against peptide concentration.\nThe peptide ppTG1 was tested for its capacity to cause membrane disruption in a liposome leakage assay with POPC liposomes containing the fluorescent product calcein. […] Release of calcein by Triton X-100 treatment was taken as positive control reaction, incubation with water served as negative control. The membranolytic activity of peptide ppTG1 (20 μg as starting point) was compared with those of equal quantities (20 μg) of JTS-1, JTS-1-K13 and KALA."}, "HeLa cells": {"system": "HeLa cells", "assay": "Transfection in the presence of Bafilomycin A", "type": "cell-based", "details": "175 nM Bafilomycin A, 150 ng pTG11236", "protocol": "Transfection in the presence of Bafilomycin A: 6×10^4 HeLa cells were plated on 24 well plates. Cells were treated with 175 nM Bafilomycin A 30 min before and throughout the transfection (1 h incubation of cells with transfection mix in the absence of serum).\nBafilomycin A is a specific inhibitor of the vacuolar proton pump. Treatment with Bafilomycin inhibits the acidification of late endosomes. HeLa cells were treated with Bafilomycin A (175 nM) 30 min before and throughout the transfection (1 h incubation with transfection complexes in the absence of serum). 6×10^4 cells were transfected with 150 ng pTG11236 using PEI or ppTG1. The luciferase assay was performed 1 day after transfection."}, "[3]": {"details": "60 μg pTG11236 with 150 μg ppTG1"}},
  "note": "Entries after “also recorded” stand apart in the source; their conditions may differ. Ends that are not written are not given here.",
  "data": [
    {"sequence": "GLFKALLKLLKSLWKLLLKA", "values": [
      {"measurement": "more efficient than the complex comprising KALA, best case", "setting": "CHO cells", "value": 2500, "unit": "fold"},
      {"measurement": "more efficient in gene transfer than KALA", "setting": "CHO cells; 50 ng pTG11236, optimum charge ratios", "value": 68, "unit": "fold"},
      {"measurement": "more efficient in gene transfer than KALA", "setting": "CHO cells; 500 ng pTG11236, optimum charge ratios", "value": 9, "unit": "fold"},
      {"measurement": "reporter gene expression after re-administration at day 3", "setting": "B6SJL mice; [3]", "value": "still refractory"},
      {"measurement": "reporter gene expression after re-administration at day 14", "setting": "B6SJL mice; [3]", "value": "re-appearance of reporter gene expression"},
      {"measurement": "mice with gene expression in the lung", "setting": "B6SJL mice; complexes of pTG11236 and ppTG1, i.v., day 1", "value": "5 out of 5"},
      {"measurement": "gene expression 3 days after injection", "setting": "B6SJL mice; ppTG1/plasmid complexes, data not shown", "value": "dropped 3 days after injection to background levels"},
      {"measurement": "transfection efficiency", "setting": "293-EBNA cells; 0.05 μg pTG11056 mixed with 0.065 μg ppTG1, charge ratio around 1", "value": "still showed high transfection efficiency"},
      {"measurement": "luciferase activities", "setting": "293-EBNA cells; 0.5 μg pTG11056 complexed with 0.65 μg ppTG1, charge ratio around 1", "value": "higher than those observed with complexes formed with Lipofectin or PEI"},
      {"measurement": "transfection of human tumor cell lines", "setting": "[1]", "value": "successfully transfected; also recorded: can efficiently transfect human tumor cell lines, especially SW480 cells"},
      {"measurement": "membrane disruption (calcein release)", "setting": "[2]", "value": "capable of causing membrane disruption"},
      {"measurement": "effect of Bafilomycin A on transfection efficiency", "setting": "HeLa cells", "value": "not diminished; also recorded: did not influence the transfection efficiency"}
    ]}
  ]
}
